Test results taken from patent US9751853B2, “Solid forms of 3-(5-amino-2-methyl-4-oxo-4H-quinazolin-3-yl)-piperidine-2,6-dione, and their pharmaceutical compositions and uses” (Celgene Corporation, priority 2011, dated 2017).
“Also recorded” adds a separate entry of the source. Where two headings read alike, the source gives them in different places.

Legend:
Format in all cases: physicochemical
[1] = Approximate solubility in test solvents (visual/gravimetric); conditions: thermodynamic from solid
Procedure: Solubility: A weighed sample of Compound A hydrochloride (about 50 mg) was treated with a known volume of a test solvent. The solvents used were either reagent or HPLC grade. The resulting mixture was agitated for at least 24 hours at about 25° C. If all of the solids appeared to be dissolved by visual inspection, the estimated solubilities were calculated based on the total volume of solvent used to give a complete solution. The actual solubilities may be greater than those calculated due to the use of large amount of solvent or to a slow rate of dissolution. If solids were present, the solubility was measured gravimetrically. A known volume of filtrate was evaporated to dryness and the weight of the residue was measured.

Solubility by HPLC = conditions: thermodynamic from solid, room temperature
Procedure: Solubility by HPLC: Solubility of Form A in selected aqueous and organic solvents was determined by mixing solid with solvents at room temperature. The samples were filtered after 24 hr of agitation and quantified by an HPLC method, except for DMSO, for which the solubility was measured after 1 hr of agitation.

[2] = Dynamic Vapor Sorption (moisture sorption)
Procedure: Dynamic Vapor Sorption (DVS): Hygroscopicity was determined on a Surface Measurement Systems DVS. Typically, a sample of about 2-10 mg was loaded into the DVS instrument sample pan. The sample was analyzed on a DVS automated sorption analyzer at room temperature. The relative humidity was increased from 0 to 95% RH at 10% RH step, then at 95% RH. The relative humidity was then decreased in a similar manner to accomplish a full adsorption/desorption cycle.

[3] = Evaporation experiments, solid form by XRPD
Procedure: Equilibration/Slurry and Evaporation: Equilibration and evaporation experiments were carried out by adding an excess of Compound A hydrochloride to about 2 mL of a test solvent. The resulting mixture was agitated for at least 24 hrs at about 25° C. or about 50° C. Upon reaching equilibrium, the saturated solution was removed and allowed to evaporate slowly in an open vial under nitrogen at about 25° C. and about 50° C., respectively. The solids resulting from the equilibration were filtered and dried in the air.
(§1) X-ray Powder Diffraction (XRPD): XRPD analysis was conducted on a Thermo ARL X'TRA™ X-ray powder diffractometer using Cu Kα radiation at 1.54 Å. The instrument was equipped with a fine focus X-ray tube. The voltage and amperage of X-ray generator were set at 45 kV and 40 mA, respectively. The divergence slices were set at 4 mm and 2 mm and the measuring slices were set at 0.5 mm and 0.2 mm. Diffracted radiation was detected by a peltier-cooled Si(Li) solid-state detector. A theta-two theta continuous scan at 2.40°/min (0.5 sec/0.02° step) from 1.5°2θ to 40°2θ was used. A sintered alumina standard was used to check the peak position. In general, positions of XRPD peaks are expected to individually vary on a measurement-by-measurement basis by about +0.2°2θ. In general, as understood in the art, two XRPD patterns match one another if the characteristic peaks of the first pattern are located at approximately the same positions as the characteristic peaks of the second pattern. As understood in the art, determining whether two XRPD patterns match or whether individual peaks in two XRPD patterns match may require consideration of individual variables and parameters such as, but not limited to, preferred orientation, phase impurities, degree of crystallinity, particle size, variation in diffractometer instrument setup, variation in XRPD data collection parameters, and/or variation in XRPD data processing, among others. The determination of whether two patterns match may be performed by eye and/or by computer analysis.

[4] = Cooling recrystallization, solid form by XRPD; conditions: no antisolvent
Procedure: Cooling Recrystallization: The selected solvents (THF/water, MeCN/water, MeOH/0.1N HCl, and EtOH/0.1N HCl) were saturated with Compound A hydrochloride at about 50-70° C. Once the solids were completely dissolved, the solution was rapidly cooled by placing into a refrigerator (about 0-5° C.). Solids were isolated after 1 to 3 days.
as §1

Molecule Cc1nc2cccc(N)c2c(=O)n1C1CCC(=O)NC1=O.Cl (centres unmarked) [Form A1, 3-(5-amino-2-methyl-4-oxo-4H-quinazolin-3-yl)-piperidine-2,6-dione hydrochloride] has a solubility ([1]; aqueous with cosolvent or surfactant or cyclodextrin, EtOH/water (1:1), about 25° C., read-out: approximate solubility) of 3000 to 10000 µg/mL, a solubility ([1]; aqueous with cosolvent or surfactant or cyclodextrin, MeCN/water (1:1), about 25° C., read-out: approximate solubility) of over 25000 µg/mL and a solubility ([1]; aqueous with cosolvent or surfactant or cyclodextrin, THF/water (1:1), about 25° C., read-out: approximate solubility) of over 25000 µg/mL. For the same molecule, the solubility ([1]; aqueous with cosolvent or surfactant or cyclodextrin, acetonitrile:water, solvent system for scaleup, read-out: solubility) was over 50000 µg/mL, the solubility ([1]; organic solvent or mixture, CH2Cl2, about 25° C., read-out: approximate solubility) was 3000 to 10000 µg/mL and the solubility ([1]; organic solvent or mixture, MeOH, about 25° C., read-out: approximate solubility) was 3000 to 10000 µg/mL. The solubility ([1]; organic solvent or mixture, THF, about 25° C., read-out: approximate solubility) was 3000 to 10000 µg/mL, the solubility ([1]; organic solvent or mixture, other organic solvents tested, about 25° C., read-out: approximate solubility) was under 3000 µg/mL and the solubility ([1]; water, about 25° C., read-out: approximate solubility) was 3000 to 10000 µg/mL. The solubility at 24 h (Solubility by HPLC; aqueous buffer, Acetate buffer (pH 4.0)) was 310 µg/mL, the solubility at 24 h (Solubility by HPLC; aqueous buffer, Phosphate buffer (pH 6.8)) was 30 µg/mL and the solubility at 24 h (Solubility by HPLC; organic solvent or mixture, Acetone) was 2550 µg/mL. The solubility at 24 h (Solubility by HPLC; organic solvent or mixture, Acetonitrile (AcCN)) was 20 µg/mL, the solubility at 1 h (Solubility by HPLC; organic solvent or mixture, Dimethyl Sulfoxide (DMSO), 1 hr of agitation) was 21900 µg/mL and the solubility at 24 h (Solubility by HPLC; organic solvent or mixture, Ethyl acetate (EtOAc)) was under 1 µg/mL. It also gave a solubility at 24 h (Solubility by HPLC; organic solvent or mixture, Heptane) of under 1 µg/mL, a solubility at 24 h (Solubility by HPLC; organic solvent or mixture, Isopropanol (iPrOH)) of 20 µg/mL and a solubility at 24 h (Solubility by HPLC; organic solvent or mixture, Methanol (MeOH)) of 270 µg/mL. The solubility at 24 h (Solubility by HPLC; organic solvent or mixture, Tetrahydrofuran (THF)) was under 5 µg/mL, the solubility at 24 h (Solubility by HPLC; organic solvent or mixture, Toluene) was under 5 µg/mL and the solubility at 24 h (Solubility by HPLC; saline or isotonic, 0.9% NaCl) was 1900 µg/mL. The solubility at 24 h (Solubility by HPLC; simulated gastric fluid, 0.1N HCl) was 5340 µg/mL, the solubility at 24 h (Solubility by HPLC; Water) was 1710 µg/mL and the hygroscopicity ([2]; DVS 0 to 95% RH) was “non-hygroscopic”. The “XRPD after full adsorption/desorption cycle” value ([2]; after DVS cycle) was “unchanged”, the “mass change relative to the dry mass” value ([2]; relative humidity increased from 0 to 95%) was 0.15% and the “XRPD Result after evaporation” value ([3]; evaporation at 50° C., Acetonitrile/Water (1:1)) was “Form A1”. The “XRPD Result after evaporation” value ([3]; evaporation at 50° C., Ethanol/Water (1:1)) was “Form A1”, the “XRPD Result after evaporation” value ([3]; evaporation at 50° C., Methanol) was “Form A1” and the “XRPD Result after evaporation” value ([3]; evaporation at 50° C., Tetrahydrofuran/Water (1:1), hydrochloride) was “Amorphous”. For the same molecule, the “XRPD Result after evaporation” value ([3]; evaporation at 50° C., Water) was “Form A1”, the “XRPD Result after evaporation” value ([3]; evaporation at room temperature, Acetonitrile/Water (1:1)) was “Form A1” and the “XRPD Result after evaporation” value ([3]; evaporation at room temperature, Ethanol/Water (1:1)) was “Form A1”. For the same molecule, the “XRPD Result after evaporation” value ([3]; evaporation at room temperature, Methanol, hydrochloride) was “Partial or complete salt dissociation; also recorded: Form A + Form A1”, the “XRPD Result after evaporation” value ([3]; evaporation at room temperature, THF) was “Partial or complete salt dissociation” and the “XRPD Result after evaporation” value ([3]; evaporation at room temperature, Tetrahydrofuran/Water (1:1), hydrochloride) was “Partial or complete salt dissociation; also recorded: Form A + Form A1”. For the same molecule, the “XRPD Result after evaporation” value ([3]; evaporation at room temperature, Water) was “Form A1”, the “XRPD Result after recrystallization” value ([4]; EtOH/0.1N HCl) was “Form A1” and the “XRPD Result after recrystallization” value ([4]; MeCN/H2O, hydrochloride) was “Form A1 + Form A”. For the same molecule, the “XRPD Result after recrystallization” value ([4]; MeOH/0.1N HCl) was “Form A1” and the “XRPD Result after recrystallization” value ([4]; THF/H2O, hydrochloride) was “Complete salt dissociation; also recorded: Form A”.
